From patent publication US20230113037A1 (Bayer Aktiengesellschaft, priority 2019, published 2023)
pIC50: −log10 of the molar value. Where two headings read alike, the source gives them in different places.

Assays:
AHR [1] = target: T1, AHR (Homo sapiens, UniProt P35869); experiment: In vitro assay 1: antagonism in human cell line (AHR transactivation, firefly luciferase reporter, kynurenic acid prestimulated); type: cell-based; conditions: AHR Antagonism Human IC50 [M]
T1 construct: U87 MG glioblastoma cells (ATCC #HTB-14) endogenously expressing AHR; endogenous in cells; host or cells: U87 MG glioblastoma cells (ATCC #HTB-14)
T1 sequence (P35869 11-848): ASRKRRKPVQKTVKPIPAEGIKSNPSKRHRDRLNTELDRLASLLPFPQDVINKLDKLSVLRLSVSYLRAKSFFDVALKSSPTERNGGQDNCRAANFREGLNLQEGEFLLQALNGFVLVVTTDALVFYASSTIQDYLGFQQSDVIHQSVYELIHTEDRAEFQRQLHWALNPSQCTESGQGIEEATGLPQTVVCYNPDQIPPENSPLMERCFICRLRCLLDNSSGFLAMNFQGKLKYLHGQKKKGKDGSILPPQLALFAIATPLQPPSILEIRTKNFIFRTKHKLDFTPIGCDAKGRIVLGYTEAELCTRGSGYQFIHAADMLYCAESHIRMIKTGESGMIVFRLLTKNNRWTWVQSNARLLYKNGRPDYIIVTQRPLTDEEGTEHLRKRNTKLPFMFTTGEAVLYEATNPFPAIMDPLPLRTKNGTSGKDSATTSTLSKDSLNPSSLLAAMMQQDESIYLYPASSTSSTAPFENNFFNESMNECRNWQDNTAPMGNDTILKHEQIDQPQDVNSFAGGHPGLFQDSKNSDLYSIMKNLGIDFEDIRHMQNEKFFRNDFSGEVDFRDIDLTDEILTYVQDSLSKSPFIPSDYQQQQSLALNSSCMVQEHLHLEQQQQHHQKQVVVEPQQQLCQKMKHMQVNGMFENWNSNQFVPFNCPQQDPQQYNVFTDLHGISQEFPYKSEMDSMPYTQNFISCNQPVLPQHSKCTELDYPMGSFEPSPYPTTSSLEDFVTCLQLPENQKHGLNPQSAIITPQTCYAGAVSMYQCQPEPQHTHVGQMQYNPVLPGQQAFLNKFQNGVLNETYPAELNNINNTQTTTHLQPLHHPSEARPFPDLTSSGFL
Method in brief: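 Antagonism measured as loss of kynurenic acid-driven firefly luciferase from DRE reporter in stably transfected U87 MG cells; constitutive Renilla signal monitors cytotoxicity. Positive/negative control normalization, staurosporine 5 μM with 150 μM kynurenic acid as inhibition control; replicates given as mean or median.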

AHR [2] = target: T2, AHR (Mus musculus, UniProt P30561); experiment: In vitro assay 3: antagonism in mouse cell line (AHR transactivation, firefly luciferase reporter, kynurenic acid prestimulated); type: cell-based
T2 sequence (P30561 1-848 P471L/N533S/M589L): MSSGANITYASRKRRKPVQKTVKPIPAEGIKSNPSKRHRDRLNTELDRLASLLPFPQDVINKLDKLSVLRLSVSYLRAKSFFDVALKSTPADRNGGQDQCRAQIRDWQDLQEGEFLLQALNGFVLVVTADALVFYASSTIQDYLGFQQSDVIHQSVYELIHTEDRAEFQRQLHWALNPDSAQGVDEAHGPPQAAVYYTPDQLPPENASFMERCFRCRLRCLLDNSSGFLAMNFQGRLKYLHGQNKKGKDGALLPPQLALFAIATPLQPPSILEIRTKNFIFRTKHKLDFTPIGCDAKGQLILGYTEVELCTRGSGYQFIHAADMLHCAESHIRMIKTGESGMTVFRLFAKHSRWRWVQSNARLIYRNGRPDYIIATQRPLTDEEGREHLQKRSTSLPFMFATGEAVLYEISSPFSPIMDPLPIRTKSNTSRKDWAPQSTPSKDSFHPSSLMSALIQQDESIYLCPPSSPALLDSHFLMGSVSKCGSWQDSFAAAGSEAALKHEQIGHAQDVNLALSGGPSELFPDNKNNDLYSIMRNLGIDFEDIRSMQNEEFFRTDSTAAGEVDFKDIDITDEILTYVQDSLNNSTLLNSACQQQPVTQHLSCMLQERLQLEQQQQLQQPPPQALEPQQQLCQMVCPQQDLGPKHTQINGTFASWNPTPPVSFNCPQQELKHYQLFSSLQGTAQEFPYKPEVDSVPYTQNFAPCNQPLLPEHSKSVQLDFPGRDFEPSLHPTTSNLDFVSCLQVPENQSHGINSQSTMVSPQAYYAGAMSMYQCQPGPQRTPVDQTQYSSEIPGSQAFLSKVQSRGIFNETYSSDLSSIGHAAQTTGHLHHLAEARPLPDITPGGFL
Method in brief: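 Kynurenic acid-prestimulated mouse reporter cells; stable AHR-inducible firefly luc construct with DRE sites in promoter. No-agonist wells = positive inhibition ctrl. Luminescence normalized to pos/neg ctrls; n>1 reported as mean or median.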

[3] = mouse Hepa 1c1c7 cells, 200 μM kynurenic acid, 20 hours, read-out: AHR Antagonism Mouse IC50
[4] = read-out: AHR Antagonism Mouse IC50, mouse Hepa 1c1c7 cells, 200 μM kynurenic acid, 20 hours

| IC50 (AHR [1]) | pIC50 (AHR [2]; [3]) | SMILES | pIC50 (AHR [2]; [4]) |
| --- | --- | --- | --- |
| 1.4e-08 M | 7.09 | CCOC(=O)[C@@H](C)Nc1nc2ccccc2c2nc(-c3ccc(OC)cc3)nn12 [Example 657, ethyl N-[2-(4-methoxyphenyl)[1,2,4]triazolo[1,5-c]quinazolin-5-yl]-D-alaninate] | – |
| 2.78e-07 M | 6.80 | COc1ccc(-c2nc3c4cccc(OCCC(F)(F)F)c4nc(N[C@@H]4CCCCNC4=O)n3n2)cc1 [Example 670, (3R)-3-{[2-(4-methoxyphenyl)-7-(3,3,3-trifluoropropoxy)[1,2,4]triazolo[1,5-c]quinazolin-5-yl]amino}azepan-2-one] | – |
| > 2e-05 M | 8.80 | O=C1NCCCC[C@H]1Nc1nc2c(C(F)(F)F)cccc2c2nc(-c3ccc(Cl)cc3OC(F)F)nn12 [Example 673, (3R)-3-({2-[4-chloro-2-(difluoromethoxy)phenyl]-7-(trifluoromethyl)[1,2,4]triazolo[1,5-c]quinazolin-5-yl}amino)azepan-2-one] | – |
| 3.44e-10 M | 9.17 | CCn1cc(-c2nc3c4cccc(C(F)(F)F)c4nc(N[C@@H]4CCCCNC4=O)n3n2)c(C)n1 [Example 674, (3R)-3-{[2-(1-ethyl-3-methyl-1H-pyrazol-4-yl)-7-(trifluoromethyl)[1,2,4]triazolo[1,5-c]quinazolin-5-yl]amino}azepan-2-one] | – |
| 6.18e-10 M | 8.71 | O=C1NCCCC[C@H]1Nc1nc2c(C(F)(F)F)cccc2c2nc(-c3cnn(C4CC4)c3)nn12 [Example 676, (3R)-3-{[2-(1-cyclopropyl-1H-pyrazol-4-yl)-7-(trifluoromethyl)[1,2,4]triazolo[1,5-c]quinazolin-5-yl]amino}azepan-2-one] | – |
| 1.33e-08 M | 7.27 | O=C1NCCCC[C@H]1Nc1nc2c(C(F)(F)F)cccc2c2nc(-c3cn[nH]c3)nn12 [Example 677, (3R)-3-{[2-(1H-pyrazol-4-yl)-7-(trifluoromethyl)[1,2,4]triazolo[1,5-c]quinazolin-5-yl]amino}azepan-2-one] | – |
| 7.43e-08 M | 8.17 | O=C1NCCCC[C@@H]1Nc1nc2ccccc2c2nc(-c3ccc(Br)cc3OC(F)(F)F)nn12 [Example 682, (3S)-3-({2-[4-bromo-2-(trifluoromethoxy)phenyl][1,2,4]triazolo[1,5-c]quinazolin-5-yl}amino)azepan-2-one] | – |
| 3.39e-09 M | 9.05 | CCCCNC(=O)[C@@H](C)Nc1nc2c(Br)cccc2c2nc(-c3ccc(Cl)cc3OC(F)F)nn12 [Example 684, N^2-{7-bromo-2-[4-chloro-2-(difluoromethoxy)phenyl][1,2,4]triazolo[1,5-c]quinazolin-5-yl}-N-butyl-D-alaninamide] | – |
| > 2e-06 M | 6.85 | CCCNC(=O)[C@H](CC)Nc1nc2c(Br)cccc2c2nc(-c3ccc(Cl)cc3OC(F)(F)F)nn12 [Example 685, (2S)-2-({7-bromo-2-[4-chloro-2-(trifluoromethoxy)phenyl][1,2,4]triazolo[1,5-c]quinazolin-5-yl}amino)-N-propylbutanamide] | – |
| 2.1e-07 M | 7.73 | CCCCNC(=O)[C@H](C)Nc1nc2c(Br)cccc2c2nc(-c3ccc(Cl)cc3OC(F)F)nn12 [Example 686, N^2-{7-bromo-2-[4-chloro-2-(difluoromethoxy)phenyl][1,2,4]triazolo[1,5-c]quinazolin-5-yl}-N-butyl-L-alaninamide] | – |
| > 2e-06 M | 7.01 | CCCCNC(=O)[C@H](C)Nc1nc2c(Br)cccc2c2nc(-c3ccc(Cl)cc3OC(F)(F)F)nn12 [Example 687, N^2-{7-bromo-2-[4-chloro-2-(trifluoromethoxy)phenyl][1,2,4]triazolo[1,5-c]quinazolin-5-yl}-N-butyl-L-alaninamide] | – |
| > 2e-05 M | < 4.70 | CC[C@H](Nc1nc2ccccc2c2nc(-c3cnccn3)nn12)C(N)=O [Example 688, (2S)-2-{[2-(pyrazin-2-yl)[1,2,4]triazolo[1,5-c]quinazolin-5-yl]amino}butanamide] | – |
| 1.6e-07 M | 6.81 | O=C1NCCCC[C@H]1Nc1nc2ccccc2c2nc(-c3cnccn3)nn12 [Example 689, (3R)-3-{[2-(pyrazin-2-yl)[1,2,4]triazolo[1,5-c]quinazolin-5-yl]amino}azepan-2-one] | – |

More lines, now with the values behind:

| SMILES | IC50 (AHR [1]) | pIC50 (AHR [2]; [3]) | pIC50 (AHR [2]; [4]) |
| --- | --- | --- | --- |
| COc1ccc(-c2nc3c4ccccc4nc(N[C@H](C)C(=O)NC4CCCCC4)n3n2)cc1 [Example 665, N-cyclohexyl-N2-[2-(4-methoxyphenyl)[1,2,4]triazolo[1,5-c]quinazolin-5-yl]-D-alaninamide] | 1.87e-08 M | – | 7.95 |
| CCOc1cccc2c1nc(N[C@@H]1CCCCNC1=O)n1nc(-c3ccc(OC)cc3)nc21 [Example 667, (3R)-3-{[7-ethoxy-2-(4-methoxyphenyl)[1,2,4]triazolo[1,5-c]quinazolin-5-yl]amino}azepan-2-one] | 2.68e-09 M | 8.34 | – |
| COc1ccc(-c2nc3c4cccc(OCC(C)(F)F)c4nc(N[C@@H]4CCCCNC4=O)n3n2)cc1 [Example 668, (3R)-3-{[7-(2,2-difluoropropoxy)-2-(4-methoxyphenyl)[1,2,4]triazolo[1,5-c]quinazolin-5-yl]amino}azepan-2-one] | > 5.71e-06 M | 6.57 | – |
| COc1ccc(-c2nc3c4cccc(O)c4nc(N[C@@H]4CCCCNC4=O)n3n2)cc1 [Example 669, (3R)-3-{[7-hydroxy-2-(4-methoxyphenyl)[1,2,4]triazolo[1,5-c]quinazolin-5-yl]amino}azepan-2-one] | 1.99e-09 M | – | 8.30 |
| CCn1cc(-c2nc3c4cccc(C(F)(F)F)c4nc(N[C@@H]4CCCCNC4=O)n3n2)cn1 [Example 675, (3R)-3-{[2-(1-ethyl-1H-pyrazol-4-yl)-7-(trifluoromethyl)[1,2,4]triazolo[1,5-c]quinazolin-5-yl]amino}azepan-2-one] | 1.22e-09 M | 8.65 | – |
| CS(=O)(=O)c1ccc(-c2nc3c4cccc(Br)c4nc(N[C@H]4CCCCNC4=O)n3n2)cc1 [Example 680, (3S)-3-({7-bromo-2-[4-(methanesulfonyl)phenyl][1,2,4]triazolo[1,5-c]quinazolin-5-yl}amino)azepan-2-one] | 3.93e-08 M | – | 7.45 |
| COc1ccc(-c2nc3c4cccc(Br)c4nc(N[C@H]4COCCNC4=O)n3n2)cc1 [Example 681, (6S)-6-{[7-bromo-2-(4-methoxyphenyl)[1,2,4]triazolo[1,5-c]quinazolin-5-yl]amino}-1,4-oxazepan-5-one] | 1.45e-08 M | 7.88 | – |
| CCCNC(=O)[C@H](CC)Nc1nc2c(Br)cccc2c2nc(-c3ccc(Cl)cc3OC(F)F)nn12 [Example 683, (2S)-2-({7-bromo-2-[4-chloro-2-(difluoromethoxy)phenyl][1,2,4]triazolo[1,5-c]quinazolin-5-yl}amino)-N-propylbutanamide] | > 5.71e-07 M | 7.78 | – |
| CC[C@H](Nc1nc2ccccc2c2nc(-c3cn(C)nn3)nn12)C(N)=O [Example 690, (2S)-2-{[2-(1-methyl-1H-1,2,3-triazol-4-yl)[1,2,4]triazolo[1,5-c]quinazolin-5-yl]amino}butanamide] | > 2e-05 M | – | < 4.70 |
